The values below come from patent publication US7160892B2, “Pyrimidone compounds and pharmaceutical compositions containing the same” (Eisai Co., Ltd., priority 2001, dated 2007).

Each structure is given as a SMILES string.

The target in assay [1] is T1, human adenosine A1 receptor (Homo sapiens, UniProt P30542).
T1 construct: expressed in transfected cells; host or cells: CHOK1 cells (membrane sample)
T1 sequence (P30542 1-326): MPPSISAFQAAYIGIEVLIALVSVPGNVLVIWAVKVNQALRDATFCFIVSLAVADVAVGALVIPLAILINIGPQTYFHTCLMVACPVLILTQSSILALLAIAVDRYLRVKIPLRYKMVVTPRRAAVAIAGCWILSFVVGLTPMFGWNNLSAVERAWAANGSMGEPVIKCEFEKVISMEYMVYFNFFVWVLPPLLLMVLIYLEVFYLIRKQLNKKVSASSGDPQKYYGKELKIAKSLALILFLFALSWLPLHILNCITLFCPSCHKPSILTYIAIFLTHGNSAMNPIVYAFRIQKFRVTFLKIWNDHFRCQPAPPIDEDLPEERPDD
Nature of the assay: Measurement of the binding ability to adenosine A1 receptor (3H-CCPA displacement, CHOK1 membranes). Conditions: read-out: K1(nM) A1. On the procedure:
Measurement of the Binding Ability to Adenosine A1 Receptor
A human adenosine A1 receptor cDNA was expressed in excess in CHOK1 cells, and this membrane sample was suspended at a protein concentration of 66.7 μg/ml in 20 mM HEPES buffer, pH 7.4 (10 mM MgCl2, 100 mM NaCl). To 0.45 ml of this membrane sample suspension were added 0.025 ml of 60 nM tritium-labeled chlorocyclopentyl adenosine (^3H—CCPA, from NEN Ltd.) and 0.025 ml of test compound. This mixture was left at 30° C. for 120 minutes, filtered rapidly under suction through a glass fiber filter (GF/B, from Whatman), and immediately washed twice with 5 ml of 50 mM water-cooled Tris-HCl buffer. Thereafter, the glass fiber filter was transferred to a vial, scintillator was added thereto, and the radioactivity on the filter was measured by a liquid scintillation counter. […]
In the above formula, the total binding means ^3H-CCPA-bound radioactivity in the absence of the test compound; the nonspecific binding means ^3H-CCPA-bound radioactivity in the presence of 100 μM RPIA ([R]-[1-methyl-2-phenylethyl] adenosine); and the binding in the presence of the test compound means ^3H-CCPA-bound radioactivity in the presence of the test compound at predetermined concentrations. The inhibition constant (Ki value) in the table was determined from the formula of Cheng-Prusoff.

A further assay deals with T2, adenosine A2A receptor (Homo sapiens, UniProt P29274).
T2 construct: purchased Receptor Biology Inc
Put plainly: Measurement of the binding ability to adenosine A2A receptor (3H-CGS21680 displacement, membrane sample). Conditions: read-out: K1(nM) A2A. On the procedure:
Measurement of the Binding Ability to Adenosine A2A Receptor
An experiment of inhibition of binding to adenosine A2A receptor was conducted using a membrane sample (Receptor Biology Inc.) where an adenosine A2A receptor cDNA was expressed in excess. This membrane sample was suspended at a protein concentration of 22.2 μg/ml in 20 mM HEPES buffer, pH 7.4 (10 mM MgCl2 and 100 mM NaCl). To 0.45 ml of this membrane sample suspension were added 0.025 ml of 500 nM tritium-labeled 2-p-[2-carboxyethyl]phenetylamino-5′-N-ethylarboxyamide adenosine (^3H-CGS21680, from NEN) and 0.025 ml of test compound. […] Thereafter, the glass fiber filter was transferred to a vial, scintillator was added thereto, and the radioactivity on the filter was measured by a liquid scintillation counter. […]
Here, the total binding means ^3H-CGS21680-bound radioactivity in the […] of the test compound; the nonspecific binding means ^3H-CGS21680-bound radioactivity in the presence of 100 μM RPIA; and the binding in the […] of the test compound means ^3H-CGS21680-bound radioactivity in the […] of the test compound at predetermined concentrations. The inhibition constant (Ki value) in the table was determined from the formula of Cheng-Prusoff.

Assay [2] has as its target T3, human adenosine A2B receptor (Homo sapiens, UniProt P29275).
T3 construct: expressed in transfected cells; host or cells: CHOK1 cells
T3 sequence (P29275 1-332): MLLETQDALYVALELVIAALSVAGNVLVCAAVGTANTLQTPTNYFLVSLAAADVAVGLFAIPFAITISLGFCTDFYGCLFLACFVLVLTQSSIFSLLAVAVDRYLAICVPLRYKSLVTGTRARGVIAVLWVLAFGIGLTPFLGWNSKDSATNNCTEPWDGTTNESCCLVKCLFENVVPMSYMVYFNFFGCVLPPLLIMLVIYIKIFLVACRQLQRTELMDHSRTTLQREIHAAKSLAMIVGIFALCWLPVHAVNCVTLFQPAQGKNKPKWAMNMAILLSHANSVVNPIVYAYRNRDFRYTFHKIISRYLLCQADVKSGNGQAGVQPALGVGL
Nature of the assay: Inhibition of NECA-stimulated production of cAMP in adenosine A2B receptor-expressing cells. Format: cell-based. The following applies: read-out: I C50(nM) A2B. On the procedure:
Experiment of Inhibition of NECA-Stimulated Production of cAMP in Adenosine A2B Receptor-Expressing Cells
CHOK1 cells where human adenosine A2B receptor had been expressed in excess were plated onto a 24-well plate at a density of 1.5×10^5 cells/well, cultured overnight, and used in the experiment. […] That is, the adhering cells were washed twice with 2 ml/well Krebs-Ringer buffer solution (containing 0.1% BSA; pH 7.4) and pre-incubated for 30 minutes in a volume of 0.5 ml/well. […] After pre-incubation for 15 minutes, the reaction was terminated with 0.1 N HCl in a volume of 300 μl/well. Measurement of intracellular cAMP was carried out using a cAMP enzyme immunoassay kit produced by Amersham.

T2 sequence (P29274 whole entry): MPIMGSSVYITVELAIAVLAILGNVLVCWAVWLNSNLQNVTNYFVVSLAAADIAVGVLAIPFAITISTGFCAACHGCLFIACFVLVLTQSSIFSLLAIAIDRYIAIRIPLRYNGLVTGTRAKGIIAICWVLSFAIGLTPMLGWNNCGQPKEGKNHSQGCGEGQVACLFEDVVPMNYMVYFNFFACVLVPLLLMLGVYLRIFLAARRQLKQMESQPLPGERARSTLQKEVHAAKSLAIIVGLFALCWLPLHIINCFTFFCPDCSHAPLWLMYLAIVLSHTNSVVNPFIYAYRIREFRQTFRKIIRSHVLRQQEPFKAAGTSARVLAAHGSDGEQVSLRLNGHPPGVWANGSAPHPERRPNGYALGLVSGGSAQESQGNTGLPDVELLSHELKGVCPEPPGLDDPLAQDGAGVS

`Nc1nc(-c2ccco2)c(-c2ccncc2)c(=O)[nH]1` [Example 2, 2-Amino-6-(2-furyl)-5-(4-pyridyl)-3,4-dihydro-4-pyrimidinone]: the Ki in assay [1] came out at 1110 nM; at adenosine A2A receptor, 345 nM. Further, the IC50 in assay [2] came to 256 nM.
Take `Cn1c(N)nc(-c2ccco2)c(-c2ccncc2)c1=O` [Example 7, 2-Amino-6-(2-furyl)-3-methyl-5-(4-pyridyl)-3,4-dihydro-4-pyrimidinone]: the Ki in assay [1] was determined as 966 nM; on adenosine A2A receptor, 493 nM. Also, in assay [2], the IC50 was found to be 71 nM.
